# US8952157B2, “Apoptosis-inducing agents for the treatment of cancer and immune and autoimmune diseases” (AbbVie Inc., priority 2008, dated 2015)
# Target: GST-Bcl-2 (Homo sapiens (Human), UniProt P10415)
# Test: Time Resolved-Fluorescence Resonance Energy Transfer (TR-FRET) Bcl-2 binding assay
# Conditions: GST-Bcl-2 1 nM, F-Bak peptide probe 100 nM, Tb-anti-GST antibody 1 nM; Ki by Wang's equation
# Procedure, shortened: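 Ki values derived from TR-FRET displacement of F-Bak peptide from GST-Bcl-2, detected with Tb-labelled anti-GST antibody (ex 340, em 520/495 nm). Compound dilution series started at 50 μM (2× starting concentration); room-temperature incubation 3 hours.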
# Chain of GST-Bcl-2 (P10415 whole entry): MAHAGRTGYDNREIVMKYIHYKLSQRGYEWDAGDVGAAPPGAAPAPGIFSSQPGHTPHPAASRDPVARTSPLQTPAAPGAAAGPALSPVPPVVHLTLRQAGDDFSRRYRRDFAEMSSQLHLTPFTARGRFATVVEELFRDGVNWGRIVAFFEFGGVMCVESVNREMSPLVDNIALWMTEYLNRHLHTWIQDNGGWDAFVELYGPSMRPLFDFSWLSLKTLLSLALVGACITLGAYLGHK
row,Compound,Ki [nM]
1,"CN1CCC(Nc2ccc(S(=O)(=O)NC(=O)c3ccc(N4CCN(CC5=C(c6ccc(Cl)cc6)CC(C)(C)CC5)CC4)cc3Oc3c(F)cccc3Cl)cc2[N+](=O)[O-])CC1 [Example 151, 2-(2-chloro-6-fluorophenoxy)-4-(4-{[2-(4-chlorophenyl)-4,4-dimethylcyclohex-1-en-1-yl]methyl}piperazin-1-yl)-N-({4-[(1-methylpiperidin-4-yl)amino]-3-nitrophenyl}sulfonyl)benzamide]",6.94
2,"CN1CCC(Nc2ccc(S(=O)(=O)NC(=O)c3ccc(N4CCN(CC5=C(c6ccc(Cl)cc6)CC(C)(C)CC5)CC4)cc3Oc3cc4cc[nH]c4cc3F)cc2[N+](=O)[O-])CC1 [Example 154, 4-(4-{[2-(4-chlorophenyl)-4,4-dimethylcyclohex-1-en-1-yl]methyl}piperazin-1-yl)-2-[(6-fluoro-1H-indol-5-yl)oxy]-N-({4-[(1-methylpiperidin-4-yl)amino]-3-nitrophenyl}sulfonyl)benzamide]",0.012
3,"CN1CCC(CNc2ccc(S(=O)(=O)NC(=O)c3ccc(N4CCN(CC5=C(c6ccc(Cl)cc6)CC(C)(C)CC5)CC4)cc3Oc3cccc(Cl)c3)cc2[N+](=O)[O-])CC1 [Example 155, 2-(3-chlorophenoxy)-4-(4-{[2-(4-chlorophenyl)-4,4-dimethylcyclohex-1-en-1-yl]methyl}piperazin-1-yl)-N-[(4-{[(1-methylpiperidin-4-yl)methyl]amino}-3-nitrophenyl)sulfonyl]benzamide]",0.062
4,"CN1CCC(Nc2ccc(S(=O)(=O)NC(=O)c3ccc(N4CCN(CC5=C(c6ccc(Cl)cc6)CC(C)(C)CC5)CC4)cc3Oc3ccc4[nH]ccc4c3F)cc2[N+](=O)[O-])CC1 [Example 157, 4-(4-{[2-(4-chlorophenyl)-4,4-dimethylcyclohex-1-en-1-yl]methyl}piperazin-1-yl)-2-[(4-fluoro-1H-indol-5-yl)oxy]-N-({4-[(1-methylpiperidin-4-yl)amino]-3-nitrophenyl}sulfonyl)benzamide]",0.72
5,"COCOc1cccc(Oc2cc(N3CCN(CC4=C(c5ccc(Cl)cc5)CC(C)(C)CC4)CC3)ccc2C(=O)NS(=O)(=O)c2ccc(NC3CCN(C)CC3)c([N+](=O)[O-])c2)c1C [Example 158, 4-(4-{[2-(4-chlorophenyl)-4,4-dimethylcyclohex-1-en-1-yl]methyl}piperazin-1-yl)-2-[3-(methoxymethoxy)-2-methylphenoxy]-N-({4-[(1-methylpiperidin-4-yl)amino]-3-nitrophenyl}sulfonyl)benzamide]",0.619
6,Cc1c(O)cccc1Oc1cc(N2CCN(CC3=C(c4ccc(Cl)cc4)CC(C)(C)CC3)CC2)ccc1C(=O)NS(=O)(=O)c1ccc(NC2CCN(C)CC2)c([N+](=O)[O-])c1 [Example 159],0.526
7,"CN1CCC(Nc2ccc(S(=O)(=O)NC(=O)c3ccc(N4CCN(CC5=C(c6ccc(Cl)cc6)CC(C)(C)OC5)CC4)cc3Oc3cccc(Br)c3)cc2[N+](=O)[O-])CC1 [Example 160, 2-(3-bromophenoxy)-4-(4-{[4-(4-chlorophenyl)-6,6-dimethyl-5,6-dihydro-2H-pyran-3-yl]methyl}piperazin-1-yl)-N-({4-[(1-methylpiperidin-4-yl)amino]-3-nitrophenyl}sulfonyl)benzamide]",0.028
8,"CN1CCC(Nc2ccc(S(=O)(=O)NC(=O)c3ccc(N4CCN(CC5=C(c6ccc(Cl)cc6)CC(C)(C)OC5)CC4)cc3Oc3cccc(I)c3)cc2[N+](=O)[O-])CC1 [Example 161, 4-(4-{[4-(4-chlorophenyl)-6,6-dimethyl-5,6-dihydro-2H-pyran-3-yl]methyl}piperazin-1-yl)-2-(3-iodophenoxy)-N-({4-[(1-methylpiperidin-4-yl)amino]-3-nitrophenyl}sulfonyl)benzamide]",0.031
9,"CC1(C)CCC(CN2CCN(c3ccc(C(=O)NS(=O)(=O)c4ccc(NC5CCN(CCO)CC5)c([N+](=O)[O-])c4)c(Oc4cccc(Cl)c4)c3)CC2)=C(c2ccc(Cl)cc2)C1 [Example 162, 2-(3-chlorophenoxy)-4-(4-{[2-(4-chlorophenyl)-4,4-dimethylcyclohex-1-en-1-yl]methyl}piperazin-1-yl)-N-[(4-{[1-(2-hydroxyethyl)piperidin-4-yl]amino}-3-nitrophenyl)sulfonyl]benzamide]",0.048
10,"CC1(C)CCC(CN2CCN(c3ccc(C(=O)NS(=O)(=O)c4ccc(NC5CCN(CCc6ccccc6)CC5)c([N+](=O)[O-])c4)c(Oc4cccc(Cl)c4)c3)CC2)=C(c2ccc(Cl)cc2)C1 [Example 163, 2-(3-chlorophenoxy)-4-(4-{[2-(4-chlorophenyl)-4,4-dimethylcyclohex-1-en-1-yl]methyl}piperazin-1-yl)-N-[(3-nitro-4-{[1-(2-phenylethyl)piperidin-4-yl]amino}phenyl)sulfonyl]benzamide]",0.686
11,"CN1CCC(Nc2ccc(S(=O)(=O)NC(=O)c3ccc(N4CCN(CC5=C(c6ccc(Cl)cc6)CC(C)(C)CC5)CC4)cc3Oc3ccc(Cl)c(Cl)c3)cc2[N+](=O)[O-])CC1 [Example 164, 4-(4-{[2-(4-chlorophenyl)-4,4-dimethylcyclohex-1-en-1-yl]methyl}piperazin-1-yl)-2-(3,4-dichlorophenoxy)-N-({4-[(1-methylpiperidin-4-yl)amino]-3-nitrophenyl}sulfonyl)benzamide]",0.056
12,"CN1CCC(Nc2ccc(S(=O)(=O)NC(=O)c3ccc(N4CCN(CC5=C(c6ccc(Cl)cc6)CC(C)(C)CC5)CC4)cc3Oc3cc(F)cc(F)c3Cl)cc2[N+](=O)[O-])CC1 [Example 165, 2-(2-chloro-3,5-difluorophenoxy)-4-(4-{[2-(4-chlorophenyl)-4,4-dimethylcyclohex-1-en-1-yl]methyl}piperazin-1-yl)-N-({4-[(1-methylpiperidin-4-yl)amino]-3-nitrophenyl}sulfonyl)benzamide]",0.12
13,"COc1cccc(Oc2cc(N3CCN(CC4=C(c5ccc(Cl)cc5)CC(C)(C)CC4)CC3)ccc2C(=O)NS(=O)(=O)c2ccc(NC3CCN(C)CC3)c([N+](=O)[O-])c2)c1 [Example 166, 4-(4-{[2-(4-chlorophenyl)-4,4-dimethylcyclohex-1-en-1-yl]methyl}piperazin-1-yl)-2-(3-methoxyphenoxy)-N-({4-[(1-methylpiperidin-4-yl)amino]-3-nitrophenyl}sulfonyl)benzamide]",0.082
14,"CN1CCC(Nc2ccc(S(=O)(=O)NC(=O)c3ccc(N4CCN(CC5=C(c6ccc(Cl)cc6)CC(C)(C)CC5)CC4)cc3Oc3cccc(CO)c3)cc2[N+](=O)[O-])CC1 [Example 167, 4-(4-{[2-(4-chlorophenyl)-4,4-dimethylcyclohex-1-en-1-yl]methyl}piperazin-1-yl)-2-[3-(hydroxymethyl)phenoxy]-N-({4-[(1-methylpiperidin-4-yl)amino]-3-nitrophenyl}sulfonyl)benzamide]",1.34
15,"CN1CCC(Nc2ccc(S(=O)(=O)NC(=O)c3ccc(N4CCN(CC5=C(c6ccc(Cl)cc6)CC(C)(C)CC5)CC4)cc3Oc3cccc(O)c3Cl)cc2[N+](=O)[O-])CC1 [Example 171, 2-(2-chloro-3-hydroxyphenoxy)-4-(4-{[2-(4-chlorophenyl)-4,4-dimethylcyclohex-1-en-1-yl]methyl}piperazin-1-yl)-N-({4-[(1-methylpiperidin-4-yl)amino]-3-nitrophenyl}sulfonyl)benzamide]",0.066
16,"CC1(C)CCC(CN2CCN(c3ccc(C(=O)NS(=O)(=O)c4ccc(NC5CCN(CCCc6ccccc6)CC5)c([N+](=O)[O-])c4)c(Oc4cccc(Cl)c4)c3)CC2)=C(c2ccc(Cl)cc2)C1 [Example 172, 2-(3-chlorophenoxy)-4-(4-{[2-(4-chlorophenyl)-4,4-dimethylcyclohex-1-en-1-yl]methyl}piperazin-1-yl)-N-[(3-nitro-4-{[1-(3-phenylpropyl)piperidin-4-yl]amino}phenyl)sulfonyl]benzamide]",0.549
17,"COCCN1CCC(Nc2ccc(S(=O)(=O)NC(=O)c3ccc(N4CCN(CC5=C(c6ccc(Cl)cc6)CC(C)(C)CC5)CC4)cc3Oc3cccc(Cl)c3)cc2[N+](=O)[O-])CC1 [Example 173, 2-(3-chlorophenoxy)-4-(4-{[2-(4-chlorophenyl)-4,4-dimethylcyclohex-1-en-1-yl]methyl}piperazin-1-yl)-N-[(4-{[1-(2-methoxyethyl)piperidin-4-yl]amino}-3-nitrophenyl)sulfonyl]benzamide]",0.019
18,"CCN1CCC(Nc2ccc(S(=O)(=O)NC(=O)c3ccc(N4CCN(CC5=C(c6ccc(Cl)cc6)CC(C)(C)CC5)CC4)cc3Oc3cccc(Cl)c3)cc2[N+](=O)[O-])CC1 [Example 174, 2-(3-chlorophenoxy)-4-(4-{[2-(4-chlorophenyl)-4,4-dimethylcyclohex-1-en-1-yl]methyl}piperazin-1-yl)-N-({4-[(1-ethylpiperidin-4-yl)amino]-3-nitrophenyl}sulfonyl)benzamide]",0.037
19,"CC(C)N1CCC(Nc2ccc(S(=O)(=O)NC(=O)c3ccc(N4CCN(CC5=C(c6ccc(Cl)cc6)CC(C)(C)CC5)CC4)cc3Oc3cccc(Cl)c3)cc2[N+](=O)[O-])CC1 [Example 175, 2-(3-chlorophenoxy)-4-(4-{[2-(4-chlorophenyl)-4,4-dimethylcyclohex-1-en-1-yl]methyl}piperazin-1-yl)-N-({4-[(1-isopropylpiperidin-4-yl)amino]-3-nitrophenyl}sulfonyl)benzamide]",0.046
20,"CN1CCC(Nc2ccc(S(=O)(=O)NC(=O)c3ccc(N4CCN(CC5=C(c6ccc(Cl)cc6)CC(C)(C)CC5)CC4)cc3Oc3cccc(O)c3)cc2[N+](=O)[O-])CC1 [Example 176, 4-(4-{[2-(4-chlorophenyl)-4,4-dimethylcyclohex-1-en-1-yl]methyl}piperazin-1-yl)-2-(3-hydroxyphenoxy)-N-({4-[(1-methylpiperidin-4-yl)amino]-3-nitrophenyl}sulfonyl)benzamide]",0.24
21,"CN1CCC(Nc2ccc(S(=O)(=O)NC(=O)c3ccc(N4CCN(CC5=C(c6ccc(Cl)cc6)CC(C)(C)CC5)CC4)cc3Oc3cccc(F)c3Cl)cc2[N+](=O)[O-])CC1 [Example 177, 2-(2-chloro-3-fluorophenoxy)-4-(4-{[2-(4-chlorophenyl)-4,4-dimethylcyclohex-1-en-1-yl]methyl}piperazin-1-yl)-N-({4-[(1-methylpiperidin-4-yl)amino]-3-nitrophenyl}sulfonyl)benzamide]",0.037
